Patent US12274731B1, “Polybasic antimalarial agents and methods of use thereof” (priority 2018, dated 2025)
Like-named read-outs stand apart in the source and are kept apart here.

Legend:
[1] = tested on: Plasmodium falciparum (Dd2 and Nf54); test: P. falciparum growth assay / dose-response in human erythrocyte culture (parasitemia after 72 h, acridine orange, FACS); assay type: cell-based; settings: for parasite growth (endpoint parasitemia, percentage of control): 72-hour treatment, equal concentrations in the media; for IC50: P. falciparum in human erythrocytes, about 72 hours post compound addition
From the text: FIG. 4A-FIG. 4D. […] DHHC8 transcript codes for five consecutive lie-residues. Levels of each transcript are normalized to total ribosome levels and represented as a ratio of transcript levels under Ile starvation (−Ile) over the control conditions (+Ile). […] Western blot analysis of Ile starved (−Ile), and control (+Ile) sample are normalized to PfHAD1 (PF3D7_1033400) levels. HA-tagged P. falciparum Pelo protein was CRISPR/Cas9 engineered and detected using mouse HA-antibody. The molecular weight of each protein is indicated. […] (D) P. falciparum growth assay in the presence of different compounds and amino acid polymers. Data represent endpoint parasitemia after 72-hour treatment with the indicated compound. Results are normalized to non-treated cultures (control) and presented as a percentage of control samples. Average value from three biological replicates is reported with standard deviation.
The lack of P. falciparum taxis during invasion of host cells, alterations in cytoadhesive properties of infected erythrocytes and previously shown invasion-blocking effects of heparin prompted testing whether poly-lysine repeats in P. falciparum membrane proteins contribute to the overall efficiency of parasite invasion of host erythrocytes.
For FIG. 21-FIG. 25, the general procedure for the drug assays included a total sample volume of 200 μl, every concentration was performed in triplicate, hematocrit was 2%, and starting parasitemia was 1%. The starting concentration of drug was 100 μg/ml and the serial dilution was made from the starting concentration. The end concentration was 0.39 μg/ml). The control represents growth of the parasite culture without added drug. All samples were subjected to Acridine orange staining and the FACS analysis was done on 96 well plates. FlowJo was used to calculate parasitemia.
Dose-response experiments were performed in triplicate with mixed culture of P. falciparum (1.0%-1.2% starting parasitemia). Parasitemias (percentage of total erythrocytes infected with parasites) were measured approximately 72 hours post compound addition by nucleic acid staining of infected red blood cells with 0.8 mg/ml acridine orange in PBS. Inhibition data were fit to a sigmoidal dose-response curve was done using Graphpad Prism 5.0.

[2] = Structure preservation of crystalline PLL; assay type: physicochemical; settings: 37° C.
uninfected human cells = test: Binding to uninfected human cells (fluorescence microscopy); assay type: cell-based
Protocol: Here, the same procedure as for above (FIG. 19) was performed for the cell culture, except for the incubation volume was 1 ml in PBS and the images were taken on a lab microscope.

human erythrocytes = test: Hemolysis in erythrocyte culture; assay type: cell-based; settings: at IC50
[3] = tested on: mCherry labelled P. berghei; test: Treatment of mice infected with mCherry labelled P. berghei; assay type: in vivo; settings: 4 doses, over 7 days of infection
From the text: Intraperitoneal treatment of mice results in the reduction of parasitemia over 2 days (see e.g., FIG. 25).

Substance | activity against Plasmodium / malaria [1] | binding to other human cells (uninfected human cells) (uninfected human cells) | parasite growth (endpoint parasitemia, percentage of control) [1] | IC50 [1] [µg/mL] | further results
10-L-lysines (SEQ ID NO: 4): Poly (L) lysine of 10 residues in length, from Alamanda polymers (KKKKKKKKKK; Synthetic polybasic peptide) | no activity | – | – | – | –
poly-L-lysine | – | do not detectably bind | efficient reduction of parasite growth | 9 | structure preservation [2]: preserves structure; hemolysis (human erythrocytes): without hemolysis; parasitemia [3]: reduces parasitemia
poly-L-ornithine | – | do not detectably bind | efficient reduction of parasite growth | – | –
poly-ε-L-lysine | not shown to be effective | – | – | – | activity against Plasmodium / malaria ([1]; listed as Epsilon poly-lysine): did not appear to have activity
poly-glutamate | – | – | did not affect the growth of parasites | – | –
heparin | – | – | inhibiting parasite growth | 12 | –
